# According to US9902737B2, “Sweet flavor modifier” (SENOMYX, INC., priority 2010, dated 2018):
# “And” between values parts separate entries of the source, which are not always exact repeats. Equal values may be shown once.
# Key:
# [1] = target: T1, hT1R2/R3 (Homo sapiens, UniProt Q7RTX0+Q8TE23); assay: Screening for sweet enhancers: sucrose EC50 shift, FLIPR calcium assay; assay type: cell-based; settings: sucrose EC50 without enhancer / with enhancer; test compound 50 μM; hT1R2/R3-HEK293 Ga15 cells; Tables A and B
# T1 construct: expressed in transfected cells; host or cells: HEK293 cells expressing Ga15 (hT1R2/R3-HEK293 Ga15)
# T1 sequence (Q8TE23 20-839): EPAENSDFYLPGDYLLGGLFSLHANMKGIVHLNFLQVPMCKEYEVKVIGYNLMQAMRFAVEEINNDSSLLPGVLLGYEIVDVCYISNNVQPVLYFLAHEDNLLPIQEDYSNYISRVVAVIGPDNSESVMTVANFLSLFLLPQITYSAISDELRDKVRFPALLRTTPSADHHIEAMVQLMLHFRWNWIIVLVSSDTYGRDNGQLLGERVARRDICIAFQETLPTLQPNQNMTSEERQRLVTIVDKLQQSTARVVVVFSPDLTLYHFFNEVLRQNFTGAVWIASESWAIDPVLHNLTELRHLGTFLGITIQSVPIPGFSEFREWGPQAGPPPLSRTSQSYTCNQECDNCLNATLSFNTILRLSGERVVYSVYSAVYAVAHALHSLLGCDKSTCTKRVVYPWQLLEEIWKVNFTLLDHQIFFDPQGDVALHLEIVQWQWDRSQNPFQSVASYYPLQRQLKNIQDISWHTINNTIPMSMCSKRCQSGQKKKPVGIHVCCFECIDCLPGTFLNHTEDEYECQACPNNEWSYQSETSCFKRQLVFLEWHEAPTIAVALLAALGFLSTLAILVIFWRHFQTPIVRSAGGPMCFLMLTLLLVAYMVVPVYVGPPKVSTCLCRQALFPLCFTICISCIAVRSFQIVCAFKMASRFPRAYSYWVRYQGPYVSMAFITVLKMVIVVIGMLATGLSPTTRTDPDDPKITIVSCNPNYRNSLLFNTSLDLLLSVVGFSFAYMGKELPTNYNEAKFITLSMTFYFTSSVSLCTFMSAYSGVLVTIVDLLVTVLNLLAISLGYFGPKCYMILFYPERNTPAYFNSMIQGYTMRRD
# T1 sequence (Q7RTX0 21-852): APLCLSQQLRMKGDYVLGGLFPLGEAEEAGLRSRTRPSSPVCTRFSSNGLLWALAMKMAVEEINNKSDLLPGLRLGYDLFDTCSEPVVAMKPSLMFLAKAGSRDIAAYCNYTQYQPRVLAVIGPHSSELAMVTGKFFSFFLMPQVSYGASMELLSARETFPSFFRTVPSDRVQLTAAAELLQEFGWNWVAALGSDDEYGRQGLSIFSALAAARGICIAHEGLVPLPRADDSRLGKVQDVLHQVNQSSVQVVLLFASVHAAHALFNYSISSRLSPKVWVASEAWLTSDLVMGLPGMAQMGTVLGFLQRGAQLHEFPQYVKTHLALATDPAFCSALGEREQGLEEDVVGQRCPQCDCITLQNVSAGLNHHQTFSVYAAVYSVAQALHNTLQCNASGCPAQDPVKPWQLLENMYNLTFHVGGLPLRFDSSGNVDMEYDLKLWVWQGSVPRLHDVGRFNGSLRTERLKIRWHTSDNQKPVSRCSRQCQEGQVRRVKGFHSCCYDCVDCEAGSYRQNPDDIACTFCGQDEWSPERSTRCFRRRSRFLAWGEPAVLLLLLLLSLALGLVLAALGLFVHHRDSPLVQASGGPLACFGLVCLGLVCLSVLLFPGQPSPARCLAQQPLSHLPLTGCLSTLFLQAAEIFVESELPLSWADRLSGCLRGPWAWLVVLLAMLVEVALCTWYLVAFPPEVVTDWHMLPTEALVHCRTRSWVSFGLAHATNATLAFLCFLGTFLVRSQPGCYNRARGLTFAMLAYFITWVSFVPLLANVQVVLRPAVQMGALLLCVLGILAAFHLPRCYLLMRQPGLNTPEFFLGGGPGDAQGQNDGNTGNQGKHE
# Method: hT1R2/R3-HEK293 Ga15 cells were seeded in 384-well-clear bottom plates (Fisher) at a density of ˜32,000 cells/well and grown overnight. On the day of the experiment, hT1R2/R3-HEK293 Ga15 were loaded with the calcium indicator Fluo3AM ([…]) (Invitrogen, Carlsbad, Calif.) in D-PBS (Invitrogen, Carlsbad, Calif.) using a Multidrop. Cells were incubated for 1 hour at room temperature and excess dye was washed out with D-PBS using an EMBLA cell washer (Molecular Devices, Sunnyvale, Calif.), leaving a residual volume of […]. […] After 30 minutes of rest time at room temperature, Fluo3AM-loaded cell plates, and the sweetener/compound plate mixture were loaded into a Fluorometric Imaging Plate Reader (FLIPR) (Molecular Devices, Sunnyvale, Calif.). Imaging was performed using a 480 nm excitation and a 535 emission and was initiated with the acquisition of the baseline fluorescence for a period of 7 seconds. […] Raw fluorescence counts were then normalized in each well (using custom made data import software) by calculating delta F/f values (maximum fluorescent count obtained after stimulation—minimal fluorescent count obtained before stimulation/minimal fluorescent count obtained before stimulation). EC50s were determined using a non-linear regression algorithm (GraphPad PRISM, San Diego, Calif.), where the Hill slope, bottom asymptotes and top asymptotes were allow to vary. […]
# [2] = system: human panelists; assay: Sweet flavor enhancement, human panelists, scaling test; assay type: in vivo; set-up: key: 0 = no sweetness, 15 = sweetness equal to 15% sucrose; settings: 0-15 line scale
# Source text: Test samples containing experimental compounds were compared to a dose-response curve for perceived sweetness intensity of sweeteners (sucralose, sucrose, fructose and other sweeteners) concentrations to determine equivalent sweetness intensity.
# A group of eight or more panelists tasted solutions including sweeteners at various concentrations, as well as the experimental compound both with and without added sweetener. Panelists then rated sweetness intensity of all samples on a structured horizontal line scale, anchored from 0 to 15, where 0 equals no sweetness and 15 equals equivalent sweetness to a 15% sucrose sample. Scores for sweetness intensity were averaged across panelists. Then using the average scores and/or equation of the line for the sweetener dose-response curve, equivalent sweetness concentrations were determined for the samples containing experimental compounds.
# Subjects had been previously familiarized with the key attribute taste and were trained to use the 0 to 15 point line scale. Subjects refrained from eating or drinking (except water) for at least 1 hour prior to the test. Subjects ate a cracker and rinsed with water several times to clean the mouth.
# Sweetener solutions are provided at a wide range of concentrations such as 100 ppm, 200 ppm, 300 ppm, 400 ppm, and 500 ppm for sucralose, or between 0% and 12% for sucrose or fructose, in order to create a dose-response curve. Samples containing experimental compound were prepared both alone and in a 100 ppm sucralose solution or a 6% sucrose or fructose solution. All samples were made up in low sodium buffer pH 7.1. In order to aid dispersion, solutions can be made up in 0.1% ethanol.
# The solutions were dispensed in 20 ml volumes into 1 oz. sample cups and served to the subjects at room temperature. All samples were presented in randomized counterbalanced order to reduce response bias. Further, two sessions of testing may be used to check panel precision.
# Subjects tasted each sample individually and rate sweetness intensity on the line scale prior to tasting the next sample. All samples were expectorated. Subjects may retaste the samples but can only use the volume of sample given. Subjects must rinse with water between samples. Eating an unsalted cracker between samples may be required depending on the samples tasted.
# The scores for each sample were averaged across subjects and standard error was calculated. The dose-response curve was plotted graphically, and this may be used to ensure the panel is rating accurately; i.e., increasing the concentration of sucralose should correspond to increased average scores for sweetness. A 2-way ANOVA (factors being samples and panelists) and multiple comparison tests (such as Tukey's Honestly Significant Difference test) can be used to determine differences among samples and/or panelists. A 3-way ANOVA, with sessions as the third factor, can be used to determine if there is any difference in the ratings between sessions.
# [3] = system: human panelists; assay: Sweet flavor enhancement, human panelists, paired comparison test; assay type: in vivo
# Method: Test samples containing experimental compounds are presented in pairs to the panelist and they are asked to determine which of the sample is sweeter. A group of 10-16 or more panelists participated in each test. Subjects refrained from eating or drinking (except water) for at least 1 hour prior to the test. Subjects rinsed with water several times to clean the mouth.
# All samples are prepared with ethanol to ensure dispersion of the compound in solution. This includes samples without compound; all solutions are balanced for 0.1% ethanol.
# Samples are also prepared with low sodium buffer (pH 7.1) in place of water. Buffer contains 0.952 g of KCl, 5.444 g of Na2HPO4, and 0.952 g of KH2PO4 in 40 L of DIUF water. Sample volumes are usually 20 ml.
# In one paired comparison test, the panelist is presented with two different samples and asked to identify the sample which is sweeter. The samples within a paired comparison test are presented in a randomized, counterbalanced order. Panelists have up to a 1 minute delay between taste tests to clear the mouth of any tastes.
# Binomial probability tables are used to determine the probability of the correct number of responses occurring for each test at alpha=0.05
compound,measurement,setting,value
"CCCNC(=O)C(C)(C)COc1cccc2nc(CC)c(C(=O)O)c(N)c12 [Compound Q, 4-amino-5-(2,2-dimethyl-3-oxo-3-(propylamino)propoxy)-2-ethyl-quinoline-3-carboxylic acid]",EC50 Ratio (50 μM),[1],3.4
"CCC(CC)COc1cccc2nc(C)c(C(=O)O)c(N)c12 [Example 22, 4-amino-5-(2-ethylbutoxy)-2-methylquinoline-3-carboxylic acid]",melting point,,145 to 151 °C
"Cc1nc2cccc(OCC(C)(C)NC(=O)c3ccncc3)c2c(N)c1C(=O)O [Example 24, 4-amino-5-(2-(isonicotinamido)-2-methylpropoxy)-2-methylquinoline-3-carboxylic acid]",melting point,,195 to 198 °C
"Cc1nc2cccc(OCC(C)(C)NC(=O)c3cccc(O)c3)c2c(N)c1C(=O)O [Example 25, 4-amino-5-(2-(3-hydroxybenzamido)-2-methylpropoxy)-2-methylquinoline-3-carboxylic acid]",melting point,,195 to 198 °C
"Cc1nc2cccc(OC3CCCCC3)c2c(N)c1C(=O)O [Example 36, 4-amino-5-(cyclohexyloxy)-2-methylquinoline-3-carboxylic acid]",melting point,,220 to 221.5 °C
"Cc1nc2cccc(OCC(C)C)c2c(N)c1C(=O)O [Example 41, 4-amino-5-isobutoxy-2-methylquinoline-3-carboxylic acid]",melting point,,203.7 °C
"OC[C@H]1O[C@@](CO)(O[C@H]2O[C@H](CO)[C@@H](O)[C@H](O)[C@H]2O)[C@@H](O)[C@@H]1O [Sucrose, sucrose]",Average sweetness,[2]; 6% sucrose alone (reference),6.6 and 6.5 and 6.3 and 6.2 and 6.1 and 6.4
same,Average sweetness,[2]; 8% sucrose alone (reference),8.2 and 8.1 and 7.8 and 7.9 and 8.4
same,Average sweetness,[2]; 9% sucrose alone (reference),9.2 and 8.4 and 8.6 and 8.5
same,Average sweetness,[2]; 10% sucrose alone (reference),9.7 and 9.5 and 9.2 and 9.0 and 9.6 and 10.3
same,Average sweetness,[2]; 12% sucrose alone (reference),10.9
same,"Sample selected as sweeter by panelists, Total","[3]; pair: 1% sucrose vs LSB + 25 uM Compound A, total 45",44
same,"Sample selected as sweeter by panelists, Total","[3]; pair: 1% sucrose vs LSB + 25 uM Compound I3, total 42",36
same,"Sample selected as sweeter by panelists, Total","[3]; pair: 1% sucrose vs LSB + 33 uM Compound C1, total 22",18
same,"Sample selected as sweeter by panelists, Total","[3]; pair: 1% sucrose vs LSB + 36.5 uM Compound B4, total 45",44
same,"Sample selected as sweeter by panelists, Total","[3]; pair: 1% sucrose vs LSB + 45 uM Compound J, total 48",47
same,"Sample selected as sweeter by panelists, Total","[3]; pair: 10% sucrose vs 6% sucrose + 25 uM Compound A, total 48",28
same,"Sample selected as sweeter by panelists, Total","[3]; pair: 10% sucrose vs 6% sucrose + 36.5 uM Compound B4, total 26",10
same,"Sample selected as sweeter by panelists, Total","[3]; pair: 10% sucrose vs 6% sucrose + 45 uM Compound J, total 42",17
same,"Sample selected as sweeter by panelists, Total","[3]; pair: 12% sucrose vs 6% sucrose + 25 uM Compound I3, total 42",18
same,"Sample selected as sweeter by panelists, Total","[3]; pair: 12% sucrose vs 6% sucrose + 33 uM Compound C1, total 30",17
OC[C@H]1O[C@H](O[C@]2(CCl)O[C@H](CCl)[C@@H](O)[C@@H]2O)[C@H](O)[C@@H](O)[C@H]1Cl [sucralose],Average sweetness,[2]; 50 ppm sucralose alone (reference),3.9
same,Average sweetness,[2]; 100 ppm sucralose alone (reference),5.9 and 5.5
same,Average sweetness,[2]; 200 ppm sucralose alone (reference),8.7 and 9.1
same,Average sweetness,[2]; 300 ppm sucralose alone (reference),10.2
